Measured values: US11203591B2, “Substituted 6-azabenzimidazole compounds” (Gilead Sciences, Inc., priority 2018, dated 2021)

Target: human HPK1 (MAP4K1) (Homo sapiens (Human), UniProt Q92918)
Test: HPK1 IC50 Assay (TR-FRET peptide phosphorylation)
Assay type: biochemical
In short: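 Pre-activated, dually phosphorylated baculovirus-expressed HPK1 kinase domain (0.15 nM) preincubated 15 min with compound, then reacted 3 h at 25° C with 10 μM ATP and 1 μM STK S1 peptide in BES pH 7.0 buffer. Phosphopeptide read by TR-FRET (665/620 nm); four-parameter fit, geometric-mean IC50.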

[1] = recombinant HPK1 kinase domain 0.15 nM, 10 μM ATP, 1 μM STK S1 peptide, geometric mean of multiple experiments
[2] = 0.15 nM HPK1, 10 μM ATP, 1 μM STK S1 peptide substrate, geometric mean

Sequence of human HPK1 (MAP4K1) (Q92918 17-274): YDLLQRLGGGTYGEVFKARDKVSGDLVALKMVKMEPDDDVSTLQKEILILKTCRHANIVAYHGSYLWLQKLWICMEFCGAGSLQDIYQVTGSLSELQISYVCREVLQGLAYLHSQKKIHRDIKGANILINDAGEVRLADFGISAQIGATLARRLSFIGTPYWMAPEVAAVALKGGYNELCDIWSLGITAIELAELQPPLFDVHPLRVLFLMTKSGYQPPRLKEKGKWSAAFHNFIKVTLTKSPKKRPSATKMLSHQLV

Row | SMILES | IC50 [1] [nM] | IC50 [2] [nM]
1 | CC(C)n1cnc2cc(-c3cnc4c(c3)N(C3CC(C)(N5CCC6C[C@@H]6C5)C3)C(=O)C4(C)C)nc(Nc3cc(C(=O)NC4(CF)CC4)c(Cl)c(F)c3F)c21 (stereo partly shown) [Example 258, 5-((6-(1-((1s,3s)-3-(3-azabicyclo[4.1.0]heptan-3-yl)-3-methylcyclobutyl)-3,3-dimethyl-2-oxo-2,3-dihydro-1H-pyrrolo[3,2-b]pyridin-6-yl)-3-isopropyl-3H-imidazo[4,5-c]pyridin-4-yl)amino)-2-chloro-3,4-difluoro-N-(1-(fluoromethyl)cyclopropyl)benzamide] | 0.09 | 
2 | CC(C)n1cnc2cc(-c3cnc4c(c3)N(C3CC(C)(N5CCC6C[C@@H]6C5)C3)C(=O)C4(C)C)nc(Nc3cc(C(=O)NC4(C(F)F)CC4)c(Cl)c(F)c3F)c21 (stereo partly shown) [Example 261, 5-((6-(1-((1s,3s)-3-(3-azabicyclo[4.1.0]heptan-3-yl)-3-methylcyclobutyl)-3,3-dimethyl-2-oxo-2,3-dihydro-1H-pyrrolo[3,2-b]pyridin-6-yl)-3-isopropyl-3H-imidazo[4,5-c]pyridin-4-yl)amino)-2-chloro-N-(1-(difluoromethyl)cyclopropyl)-3,4-difluorobenzamide] | 0.09 | 
3 | CC(C)n1cnc2cc(-c3cnc4c(c3)N(C3CC(C)(N5CCC6C[C@@H]6C5)C3)C(=O)C4(C)C)nc(Nc3cc(C(=O)NC4(C(F)F)CC4)c(Cl)c(F)c3F)c21 (stereo partly shown) [Example 262, 5-((6-(1-((1s,3s)-3-(3-azabicyclo[4.1.0]heptan-3-yl)-3-methylcyclobutyl)-3,3-dimethyl-2-oxo-2,3-dihydro-1H-pyrrolo[3,2-b]pyridin-6-yl)-3-isopropyl-3H-imidazo[4,5-c]pyridin-4-yl)amino)-2-chloro-N-(1-(difluoromethyl)cyclopropyl)-3,4-difluorobenzamide] | 0.1 | 
4 | CC(C)n1cnc2cc(-c3cnc4c(c3)N([C@H]3C[C@@](C)(N5C[C@H]6CC[C@@H]5C6)C3)C(=O)C4(C)C)nc(Nc3cc(C(=O)NC4(C(F)F)CC4)c(Cl)c(F)c3F)c21 [Example 263, 5-((6-(1-((1S,3s)-3-((1R,4S)-2-azabicyclo[2.2.1]heptan-2-yl)-3-methylcyclobutyl)-3,3-dimethyl-2-oxo-2,3-dihydro-1H-pyrrolo[3,2-b]pyridin-6-yl)-3-isopropyl-3H-imidazo[4,5-c]pyridin-4-yl)amino)-2-chloro-N-(1-(difluoromethyl)cyclopropyl)-3,4-difluorobenzamide] | 0.05 | 
5 | Cc1c(F)c(Nc2nc(-c3cnc4c(c3)N([C@H]3C[C@@](C)(N5CCCCC5)C3)C(=O)C4(C)C)cc3ncn(C(C)C)c23)cc(C(=O)NC2(C(F)F)CC2)c1Cl [Example 264, 2-chloro-N-(1-(difluoromethyl)cyclopropyl)-5-((6-(3,3-dimethyl-1-((1s,3s)-3-methyl-3-(piperidin-1-yl)cyclobutyl)-2-oxo-2,3-dihydro-1H-pyrrolo[3,2-b]pyridin-6-yl)-3-isopropyl-3H-imidazo[4,5-c]pyridin-4-yl)amino)-4-fluoro-3-methylbenzamide] | 0.2 | 
6 | CC(C)n1cnc2cc(-c3cnc4c(c3)N([C@H]3C[C@@](C)(N5CCCCC5)C3)C(=O)C4(C)C)nc(Nc3cc(C(=O)NC4CC4)c(Cl)c(F)c3F)c21 [Example 265, 2-chloro-N-cyclopropyl-5-((6-(3,3-dimethyl-1-((1s,3s)-3-methyl-3-(piperidin-1-yl)cyclobutyl)-2-oxo-2,3-dihydro-1H-pyrrolo[3,2-b]pyridin-6-yl)-3-isopropyl-3H-imidazo[4,5-c]pyridin-4-yl)amino)-3,4-difluorobenzamide] | 0.06 | 
7 | Cc1cc(F)c(Nc2nc(-c3ccc4c(c3)N([C@H]3C[C@@](C)(N5CCCCC5)C3)C(=O)C4(C)C)cc3ncn(C(C)C)c23)cc1C(=O)NCC(F)F [Example 266, N-(2,2-difluoroethyl)-5-((6-(3,3-dimethyl-1-((1s,3s)-3-methyl-3-(piperidin-1-yl)cyclobutyl)-2-oxoindolin-6-yl)-3-isopropyl-3H-imidazo[4,5-c]pyridin-4-yl)amino)-4-fluoro-2-methylbenzamide] |  | 0.06
8 | CC(C)NC(=O)c1cc(Nc2nc(-c3cnc4c(c3)N([C@H]3C[C@@](C)(N5CCCCC5)C3)C(=O)C4(C)C)cc3ncn(C(C)C)c23)c(F)c(F)c1Cl [Example 267, 2-chloro-5-((6-(3,3-dimethyl-1-((1s,3s)-3-methyl-3-(piperidin-1-yl)cyclobutyl)-2-oxo-2,3-dihydro-1H-pyrrolo[3,2-b]pyridin-6-yl)-3-isopropyl-3H-imidazo[4,5-c]pyridin-4-yl)amino)-3,4-difluoro-N-isopropylbenzamide] |  | 0.1
9 | Cc1c(C(=O)NCC(F)F)cc(Nc2nc(-c3ccc4c(c3)N([C@H]3C[C@@](C)(N5CCCCC5)C3)C(=O)C4(C)C)cc3ncn(C(C)C)c23)c(F)c1F [Example 268, N-(2,2-difluoroethyl)-5-((6-(3,3-dimethyl-1-((1s,3s)-3-methyl-3-(piperidin-1-yl)cyclobutyl)-2-oxoindolin-6-yl)-3-isopropyl-3H-imidazo[4,5-c]pyridin-4-yl)amino)-3,4-difluoro-2-methylbenzamide] |  | 0.03
10 | Cc1c(C(=O)NCC(F)F)cc(Nc2nc(-c3cc4c(nc3F)C(C)(C)C(=O)N4[C@H]3C[C@@](C)(N4CCCCC4)C3)cc3ncn(C(C)C)c23)c(F)c1F [Example 269, N-(2,2-difluoroethyl)-3,4-difluoro-5-((6-(5-fluoro-3,3-dimethyl-1-((1s,3s)-3-methyl-3-(piperidin-1-yl)cyclobutyl)-2-oxo-2,3-dihydro-1H-pyrrolo[3,2-b]pyridin-6-yl)-3-isopropyl-3H-imidazo[4,5-c]pyridin-4-yl)amino)-2-methylbenzamide] |  | 0.07
11 | CCNC(=O)c1cc(Nc2nc(-c3cc4c(nc3F)C(C)(C)C(=O)N4[C@H]3C[C@@](C)(N4CCCC5(CC5)C4)C3)cc3ncn(C(C)C)c23)c(F)c(F)c1Cl [Example 270, 2-chloro-N-ethyl-3,4-difluoro-5-((6-(5-fluoro-3,3-dimethyl-1-((1s,3s)-3-methyl-3-(5-azaspiro[2.5]octan-5-yl)cyclobutyl)-2-oxo-2,3-dihydro-1H-pyrrolo[3,2-b]pyridin-6-yl)-3-isopropyl-3H-imidazo[4,5-c]pyridin-4-yl)amino)benzamide] |  | 0.1
12 | CCNC(=O)c1cc(Nc2nc(-c3cc4c(nc3F)C(C)(C)C(=O)N4[C@H]3C[C@@](C)(N4CCCCC4)C3)cc3ncn(C(C)C)c23)c(F)c(F)c1C [Example 271, N-ethyl-3,4-difluoro-5-((6-(5-fluoro-3,3-dimethyl-1-((1s,3s)-3-methyl-3-(piperidin-1-yl)cyclobutyl)-2-oxo-2,3-dihydro-1H-pyrrolo[3,2-b]pyridin-6-yl)-3-isopropyl-3H-imidazo[4,5-c]pyridin-4-yl)amino)-2-methylbenzamide] |  | 0.06
13 | CC(C)n1cnc2cc(-c3cc4c(nc3F)C(C)(C)C(=O)N4[C@H]3C[C@@](C)(N4CCCCC4)C3)nc(Nc3cc(C(=O)NCC(F)F)c(Cl)c(F)c3F)c21 [Example 272, 2-chloro-N-(2,2-difluoroethyl)-3,4-difluoro-5-((6-(5-fluoro-3,3-dimethyl-1-((1s,3s)-3-methyl-3-(piperidin-1-yl)cyclobutyl)-2-oxo-2,3-dihydro-1H-pyrrolo[3,2-b]pyridin-6-yl)-3-isopropyl-3H-imidazo[4,5-c]pyridin-4-yl)amino)benzamide] |  | 0.09
